Data from ChEMBL document CHEMBL2321758, “Discovery of 4-{4-[(3R)-3-Methylmorpholin-4-yl]-6-[1-(methylsulfonyl)cyclopropyl]pyrimidin-2-yl}-1H-indole (AZ20): a potent and selective inhibitor of ATR protein kinase with monotherapy in vivo antitumor activity” (J Med Chem, 2013).
≈ marks a conversion by molar mass, not a printed value. Calls of active or inactive are those of the source. No cut-off for these calls is given here.

Key:
[1] = molecular target: T1, Serine/threonine-protein kinase ATR (Homo sapiens, UniProt Q13535); assay type: cell-based, HT-29
T1 sequence (Q13535 whole entry): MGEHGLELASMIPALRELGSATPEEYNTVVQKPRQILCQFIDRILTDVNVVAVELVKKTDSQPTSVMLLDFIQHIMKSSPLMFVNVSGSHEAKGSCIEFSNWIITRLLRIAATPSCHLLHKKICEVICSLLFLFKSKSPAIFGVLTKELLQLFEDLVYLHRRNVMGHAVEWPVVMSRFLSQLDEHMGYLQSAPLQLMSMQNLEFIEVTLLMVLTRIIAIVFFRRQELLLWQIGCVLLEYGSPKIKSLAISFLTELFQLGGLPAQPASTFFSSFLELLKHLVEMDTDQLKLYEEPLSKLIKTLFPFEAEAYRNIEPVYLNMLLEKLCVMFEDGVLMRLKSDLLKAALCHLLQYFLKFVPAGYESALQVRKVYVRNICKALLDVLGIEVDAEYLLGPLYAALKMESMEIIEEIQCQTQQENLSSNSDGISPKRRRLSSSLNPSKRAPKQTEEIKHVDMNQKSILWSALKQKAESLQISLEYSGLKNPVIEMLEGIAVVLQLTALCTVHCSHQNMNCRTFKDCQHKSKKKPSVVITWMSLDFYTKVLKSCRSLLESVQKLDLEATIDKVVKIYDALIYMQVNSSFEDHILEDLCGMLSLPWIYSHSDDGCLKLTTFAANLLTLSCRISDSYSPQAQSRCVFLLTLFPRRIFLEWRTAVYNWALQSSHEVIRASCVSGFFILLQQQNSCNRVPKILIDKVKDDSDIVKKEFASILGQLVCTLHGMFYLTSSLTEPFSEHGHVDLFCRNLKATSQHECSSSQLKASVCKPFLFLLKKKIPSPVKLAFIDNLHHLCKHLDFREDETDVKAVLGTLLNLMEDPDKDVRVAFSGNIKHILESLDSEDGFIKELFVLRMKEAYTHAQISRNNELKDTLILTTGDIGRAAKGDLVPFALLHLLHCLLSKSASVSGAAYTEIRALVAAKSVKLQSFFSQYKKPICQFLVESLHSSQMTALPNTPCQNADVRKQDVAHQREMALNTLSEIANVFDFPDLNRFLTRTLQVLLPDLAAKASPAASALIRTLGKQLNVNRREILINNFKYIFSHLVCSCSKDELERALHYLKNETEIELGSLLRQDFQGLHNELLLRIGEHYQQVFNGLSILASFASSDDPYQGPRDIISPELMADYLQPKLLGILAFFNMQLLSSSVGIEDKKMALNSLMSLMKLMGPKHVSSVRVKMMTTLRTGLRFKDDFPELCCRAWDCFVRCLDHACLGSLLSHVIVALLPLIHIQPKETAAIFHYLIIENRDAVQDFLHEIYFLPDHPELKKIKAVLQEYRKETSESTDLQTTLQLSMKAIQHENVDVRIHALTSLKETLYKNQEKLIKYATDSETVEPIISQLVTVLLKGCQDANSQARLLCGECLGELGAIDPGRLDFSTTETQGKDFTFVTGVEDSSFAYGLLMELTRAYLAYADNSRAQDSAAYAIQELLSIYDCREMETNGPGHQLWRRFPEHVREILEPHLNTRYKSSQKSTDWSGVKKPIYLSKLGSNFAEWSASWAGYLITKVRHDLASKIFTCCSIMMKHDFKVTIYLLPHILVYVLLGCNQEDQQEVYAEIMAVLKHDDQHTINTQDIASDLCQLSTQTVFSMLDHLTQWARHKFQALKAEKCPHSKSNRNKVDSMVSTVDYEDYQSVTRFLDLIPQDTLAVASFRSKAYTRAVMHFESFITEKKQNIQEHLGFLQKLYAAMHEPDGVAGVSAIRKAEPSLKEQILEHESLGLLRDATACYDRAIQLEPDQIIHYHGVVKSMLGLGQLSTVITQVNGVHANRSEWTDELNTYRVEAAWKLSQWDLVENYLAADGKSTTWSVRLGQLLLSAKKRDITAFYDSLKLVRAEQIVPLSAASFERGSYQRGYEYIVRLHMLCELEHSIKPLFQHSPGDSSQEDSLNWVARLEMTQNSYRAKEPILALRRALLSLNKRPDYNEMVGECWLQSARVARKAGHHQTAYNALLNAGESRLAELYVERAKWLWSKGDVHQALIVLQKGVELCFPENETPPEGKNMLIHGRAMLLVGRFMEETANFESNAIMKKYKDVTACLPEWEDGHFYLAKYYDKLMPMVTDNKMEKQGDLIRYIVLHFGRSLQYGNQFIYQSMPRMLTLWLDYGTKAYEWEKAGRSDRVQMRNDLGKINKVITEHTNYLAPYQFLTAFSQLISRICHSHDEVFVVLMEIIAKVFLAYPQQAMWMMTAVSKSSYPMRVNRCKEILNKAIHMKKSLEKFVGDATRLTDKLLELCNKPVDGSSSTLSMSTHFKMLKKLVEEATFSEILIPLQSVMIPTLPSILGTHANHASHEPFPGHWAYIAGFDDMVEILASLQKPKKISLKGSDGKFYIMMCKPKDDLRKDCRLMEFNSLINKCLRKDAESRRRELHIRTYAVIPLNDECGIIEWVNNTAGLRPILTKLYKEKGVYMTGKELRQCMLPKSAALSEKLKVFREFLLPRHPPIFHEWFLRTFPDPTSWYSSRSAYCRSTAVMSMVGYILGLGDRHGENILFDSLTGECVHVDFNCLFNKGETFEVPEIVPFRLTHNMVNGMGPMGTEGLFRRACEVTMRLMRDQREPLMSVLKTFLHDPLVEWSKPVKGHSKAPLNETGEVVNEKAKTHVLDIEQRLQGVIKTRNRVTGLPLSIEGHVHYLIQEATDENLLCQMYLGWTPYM

[2] = molecular target: T1, Serine/threonine-protein kinase ATR
[3] = molecular target: T2, Phosphatidylinositol 4,5-bisphosphate 3-kinase catalytic subunit alpha isoform (Homo sapiens, UniProt P42336); assay: Inhibition of PI3Kalpha (unknown origin)
T2 sequence (P42336 whole entry, canonical isoform): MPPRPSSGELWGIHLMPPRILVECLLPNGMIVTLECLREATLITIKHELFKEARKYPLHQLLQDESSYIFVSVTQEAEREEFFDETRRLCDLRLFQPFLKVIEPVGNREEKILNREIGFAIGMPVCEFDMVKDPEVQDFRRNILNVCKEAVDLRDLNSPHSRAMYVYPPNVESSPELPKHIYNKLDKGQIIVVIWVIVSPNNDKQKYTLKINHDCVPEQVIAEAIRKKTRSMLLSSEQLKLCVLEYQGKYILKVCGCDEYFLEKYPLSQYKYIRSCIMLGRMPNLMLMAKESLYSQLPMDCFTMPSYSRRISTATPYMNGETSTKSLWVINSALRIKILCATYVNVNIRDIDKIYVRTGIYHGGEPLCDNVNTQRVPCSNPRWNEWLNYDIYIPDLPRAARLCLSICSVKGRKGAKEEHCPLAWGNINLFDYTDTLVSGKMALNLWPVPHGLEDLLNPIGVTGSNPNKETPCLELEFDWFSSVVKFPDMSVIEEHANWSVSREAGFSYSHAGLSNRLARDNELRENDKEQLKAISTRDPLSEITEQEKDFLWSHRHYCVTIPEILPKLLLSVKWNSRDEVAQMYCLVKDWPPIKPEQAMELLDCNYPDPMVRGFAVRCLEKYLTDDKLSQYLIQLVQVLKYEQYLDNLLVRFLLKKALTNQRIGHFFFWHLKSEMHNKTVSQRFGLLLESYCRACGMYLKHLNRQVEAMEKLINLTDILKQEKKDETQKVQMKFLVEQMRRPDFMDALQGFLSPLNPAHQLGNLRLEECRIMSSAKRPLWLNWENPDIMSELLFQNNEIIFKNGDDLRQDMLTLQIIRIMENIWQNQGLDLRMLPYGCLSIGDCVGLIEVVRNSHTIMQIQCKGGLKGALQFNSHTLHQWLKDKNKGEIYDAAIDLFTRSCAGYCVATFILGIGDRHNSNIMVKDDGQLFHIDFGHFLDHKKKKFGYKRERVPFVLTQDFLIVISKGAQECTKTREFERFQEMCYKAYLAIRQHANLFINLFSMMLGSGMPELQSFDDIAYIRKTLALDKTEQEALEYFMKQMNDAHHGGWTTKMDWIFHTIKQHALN

[4] = molecular target: Voltage-gated inwardly rectifying potassium channel KCNH2 (Homo sapiens, UniProt Q12809)
Voltage-gated inwardly rectifying potassium channel KCNH2, sequence (Q12809 whole entry): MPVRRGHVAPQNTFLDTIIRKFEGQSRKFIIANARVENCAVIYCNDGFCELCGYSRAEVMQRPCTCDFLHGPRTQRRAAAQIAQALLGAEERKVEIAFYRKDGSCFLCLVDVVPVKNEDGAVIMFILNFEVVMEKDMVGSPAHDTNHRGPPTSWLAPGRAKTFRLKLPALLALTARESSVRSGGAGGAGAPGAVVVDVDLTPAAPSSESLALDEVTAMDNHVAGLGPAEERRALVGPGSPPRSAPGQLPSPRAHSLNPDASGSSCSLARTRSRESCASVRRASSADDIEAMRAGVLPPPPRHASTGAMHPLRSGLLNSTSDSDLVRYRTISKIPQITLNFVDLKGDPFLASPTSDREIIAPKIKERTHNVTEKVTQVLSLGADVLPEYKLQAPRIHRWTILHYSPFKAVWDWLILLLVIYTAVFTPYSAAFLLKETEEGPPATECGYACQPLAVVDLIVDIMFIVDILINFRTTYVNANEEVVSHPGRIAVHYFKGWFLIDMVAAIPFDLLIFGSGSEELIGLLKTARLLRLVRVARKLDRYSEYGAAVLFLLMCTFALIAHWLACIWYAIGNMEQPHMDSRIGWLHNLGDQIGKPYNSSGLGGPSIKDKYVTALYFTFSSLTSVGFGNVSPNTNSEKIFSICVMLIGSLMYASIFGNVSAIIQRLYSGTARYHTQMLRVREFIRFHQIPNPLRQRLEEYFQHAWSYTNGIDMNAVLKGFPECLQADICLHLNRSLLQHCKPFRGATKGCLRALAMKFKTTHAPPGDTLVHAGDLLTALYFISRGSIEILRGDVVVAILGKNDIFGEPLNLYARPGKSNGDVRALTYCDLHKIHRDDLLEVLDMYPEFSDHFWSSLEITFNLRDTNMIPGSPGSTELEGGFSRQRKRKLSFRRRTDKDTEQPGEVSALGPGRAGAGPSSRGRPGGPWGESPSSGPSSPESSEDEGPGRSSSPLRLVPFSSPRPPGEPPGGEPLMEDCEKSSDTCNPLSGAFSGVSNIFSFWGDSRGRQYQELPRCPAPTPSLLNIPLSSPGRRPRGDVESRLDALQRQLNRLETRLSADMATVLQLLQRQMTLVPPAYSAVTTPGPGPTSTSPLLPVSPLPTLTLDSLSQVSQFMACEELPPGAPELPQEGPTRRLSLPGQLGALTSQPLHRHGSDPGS

[5] = AUC in Han-Wistar rat at 4 umol/kg, po; assay type: ADME, organism-based; settings: plasma
[6] = Apparent permeability from apical to basolateral side in human Caco2 cells at 10 uM at pH 6.5; assay type: ADME, cell-based; settings: Caco-2, pH 6.5
[7] = Fraction unbound in rat plasma; assay type: ADME, cell-free
[8] = molecular target: T3, Serine/threonine-protein kinase mTOR (Homo sapiens, UniProt P42345); assay: Inhibition of mTOR-mediated AKT phosphorylation at serine 473 in human MDA-MB-468 cells; assay type: cell-based
in vitro = settings: rat, hepatocytes
[9] = Solubility of the compound in phosphate buffer after 24 hrs at pH 7.4 by LC-UV-MS analysis; assay type: physicochemical
physchem = settings: octanol/buffer, pH 7.4
[10] = molecular target: DNA-dependent protein kinase catalytic subunit (Homo sapiens, UniProt P78527); assay: Inhibition of DNA-PK (unknown origin)
[11] = molecular target: T3, Serine/threonine-protein kinase mTOR; assay: Inhibition of recombinant mTOR (unknown origin)
[12] = Aqueous solubility of the compound at pH 7.4; assay type: physicochemical; settings: buffer
[13] = Dissociation constant, pKa of the compound; assay type: physicochemical
[14] = Volume of distribution in rat; assay type: ADME, organism-based; settings: in vivo
[15] = Bioavailability in rat; assay type: ADME, organism-based; settings: in vivo
[16] = Plasma clearance in rat; assay type: ADME, organism-based
[17] = molecular target: T3, Serine/threonine-protein kinase mTOR; assay: Inhibition of recombinant mTOR (unknown origin) assessed as residual activity at 1 uM
LoVo [18] = assay: Antitumor activity against human LoVo cells xenografted in Swiss nu/nu mouse assessed as tumor growth inhibition at 25 mg/kg, po bid for 13 days relative to control; assay type: functional, organism-based; set-up: dose 25 mg/kg
[19] = molecular target: T2, Phosphatidylinositol 4,5-bisphosphate 3-kinase catalytic subunit alpha isoform; assay: Inhibition of PI3Kalpha (unknown origin) assessed as residual activity at 1 uM
[20] = Oral bioavailability in Han-Wistar rat at 4 umol/kg; assay type: ADME, organism-based; settings: in vivo
LoVo [21] = assay: Antitumor activity against human LoVo cells xenografted in Swiss nu/nu mouse assessed as tumor growth inhibition at 50 mg/kg, po qd for 13 days relative to control; assay type: functional, organism-based; set-up: dose 50 mg/kg

Structure (SMILES)	IC50 [1]	IC50 [2]	also measured
Cc1ccc2[nH]ccc2c1-c1nc(N2CCOCC2)cc(C2(S(C)(=O)=O)CC2)n1	> 30000 nM		solubility [12]: 96 µM (≈ 39.6 µg/mL)
Cc1c[nH]c2cccc(-c3nc(N4CCOCC4)cc(C4(S(C)(=O)=O)CC4)n3)c12	> 30000 nM	14000 nM	
CS(=O)(=O)C1(c2cc(N3CCOCC3)nc(-c3cccc4[nH]ccc34)n2)CC1			Vd [14]: 2.1 L/kg; IC50 [3]: 940 nM; AUC [5]: 3.1 µM·h; bioavailability [15]: 70%; Papp A→B at 10 µM [6]: 21 ×10⁻⁶ cm/s; clearance [16]: 15 mL/min/kg; fraction unbound [7]: 0.23; IC50 [8]: 3200 nM; hepatocyte CLint at 1 µM (in vitro): < 3 µL/min/1e6 cells; solubility at 24 h [9]: 4.4 µM (≈ 1.75 µg/mL); logD (physchem): 2.2
CS(=O)(=O)Cc1cc(N2CCOCC2)nc(-c2cccc3cc[nH]c23)n1	> 30000 nM	180 nM	
CS(=O)(=O)Cc1cc(N2CCOCC2)nc(-c2ccc3[nH]ccc3c2)n1	> 30000 nM	1700 nM	
Cn1ccc2c(-c3nc(CS(C)(=O)=O)cc(N4CCOCC4)n3)cccc21	> 30000 nM	3300 nM	
CS(=O)(=O)C1(c2cc(N3CCOCC3)nc(-c3cccc4c3CC(=O)N4)n2)CC1	16000 nM	120 nM	
C[C@@H]1COCCN1c1cc(C2(S(C)(=O)=O)CC2)nc(-c2cccc3[nH]ccc23)n1			Activity [17]: < 50%; TGI (LoVo [18]): Active; Activity [19]: < 50%; Papp A→B at 10 µM [6]: 23 ×10⁻⁶ cm/s; bioavailability [20]: 62%; TGI (LoVo [21]): Active; logD (physchem): 2.7
CS(=O)(=O)C1(c2cc(N3CCOCC3)nc(-c3cccc(N)c3)n2)CC1	> 30000 nM	1200 nM	
CS(=O)(=O)C1(c2cc(N3CCOCC3)nc(-c3cc(C(N)=O)cc4[nH]ccc34)n2)CC1	9200 nM	41 nM	
CS(=O)(=O)C1(c2cc(N3CCOCC3)nc(-c3ccccc3)n2)CC1	> 30000 nM	360 nM	
CS(=O)(=O)C1(c2cc(N3CCOCC3)nc(-c3cccc4[nH]c(C(N)=O)cc34)n2)CC1	> 30000 nM	1100 nM	
CN(C)C(=O)c1cc(-c2nc(N3CCOCC3)cc(C3(S(C)(=O)=O)CC3)n2)c2cc[nH]c2c1	24000 nM	720 nM	
CS(=O)(=O)C1(c2cc(N3CCOCC3)nc(-c3cccc4[nH]ncc34)n2)CC1	13000 nM	130 nM	
CS(=O)(=O)Cc1cc(N2CCOCC2)nc(-c2ccc3cc[nH]c3c2)n1	> 30000 nM	1500 nM	
C[C@H]1COCCN1c1cc(C2(S(C)(=O)=O)CC2)nc(-c2cccc3[nH]ccc23)n1			logD (physchem): 2.8

The remaining molecules from weak to strong by IC50 [1], led by results:

IC50 [1]	IC50 [2]	Structure (SMILES)	also measured
7200 nM	300 nM	CS(=O)(=O)C1(c2cc(N3CCOCC3)nc(-c3cccc4[nH]c(C#N)cc34)n2)CC1	
6300 nM	220 nM	Cc1ccc(-c2nc(N3CCOCC3)cc(C3(S(C)(=O)=O)CC3)n2)c2cc[nH]c12	
4400 nM	170 nM	CC[C@@H]1COCCN1c1cc(C2(S(C)(=O)=O)CC2)nc(-c2cccc3[nH]ccc23)n1	logD (physchem): 3
3700 nM	61 nM	CN1CCC(c2cc(N3CCOCC3)nc(-c3cccc4[nH]ccc34)n2)(S(C)(=O)=O)CC1	logD (physchem): 1.9
2900 nM	46 nM	O=S(=O)(C1CCNCC1)C1(c2cc(N3CCOCC3)nc(-c3cccc4[nH]ccc34)n2)CC1	
2800 nM	33 nM	O=S(=O)(C1CCOCC1)C1(c2cc(N3CCOCC3)nc(-c3cccc4[nH]ccc34)n2)CC1	
2500 nM	28 nM	Cc1cc2c(-c3nc(N4CCOCC4)cc(C4(S(C)(=O)=O)CC4)n3)cccc2[nH]1	
2000 nM	33 nM	O=S(=O)(c1ccccn1)C1(c2cc(N3CCOCC3)nc(-c3cccc4[nH]ccc34)n2)CC1	
1500 nM		CS(=O)(=O)C1(c2cc(N3CCOCC3)nc(-c3cc(C#N)cc4[nH]ccc34)n2)CC1	
1100 nM	30 nM	CS(=O)(=O)Cc1cc(N2CCOCC2)nc(-c2cccc3[nH]ccc23)n1	IC50 [3]: 3800 nM; IC50 [10]: 2700 nM; IC50 [11]: 330 nM; IC50 [8]: 5900 nM; logD (physchem): 1.7
770 nM	13 nM	CC(C)S(=O)(=O)C1(c2cc(N3CCOCC3)nc(-c3cccc4[nH]ccc34)n2)CC1	
720 nM	16 nM	CS(=O)(=O)C1(c2cc(N3CCOCC3)nc(-c3cc(Cl)cc4[nH]ccc34)n2)CC1	
590 nM	5 nM	O=S(=O)(c1ccccc1)C1(c2cc(N3CCOCC3)nc(-c3cccc4[nH]ccc34)n2)CC1	
490 nM	8 nM	Cc1cc(-c2nc(N3CCOCC3)cc(C3(S(C)(=O)=O)CC3)n2)c2cc[nH]c2c1	
420 nM	9 nM	CS(=O)(=O)C1(c2cc(N3CCOCC3)nc(-c3cccc4[nH]ccc34)n2)CCNCC1	IC50 [3]: 2700 nM; IC50 [4]: > 33000 nM; AUC [5]: 0.04 µM·h; pKa [13]: 8.8; Papp A→B at 10 µM [6]: 0.2 ×10⁻⁶ cm/s; fraction unbound [7]: 0.4; IC50 [8]: 1500 nM; hepatocyte CLint at 1 µM (in vitro): 9.4 µL/min/1e6 cells; solubility at 24 h [9]: 230 µM (≈ 102 µg/mL); logD (physchem): 0.7
280 nM	3 nM	CC(C)(c1cc(N2CCOCC2)nc(-c2cccc3[nH]ccc23)n1)S(C)(=O)=O	IC50 [3]: 1600 nM; AUC [5]: 0.76 µM·h; Papp A→B at 10 µM [6]: 16 ×10⁻⁶ cm/s; fraction unbound [7]: 0.2; IC50 [11]: 190 nM; IC50 [8]: 2700 nM; hepatocyte CLint at 1 µM (in vitro): 41 µL/min/1e6 cells; solubility at 24 h [9]: < 0.4 µM; logD (physchem): 2.7
180 nM	4 nM	CS(=O)(=O)C1(c2cc(N3CCOCC3)nc(-c3cccc4[nH]ccc34)n2)CCOCC1	IC50 [3]: 1400 nM; IC50 [4]: > 33000 nM; AUC [5]: 0.32 µM·h; Papp A→B at 10 µM [6]: 28 ×10⁻⁶ cm/s; fraction unbound [7]: 0.25; IC50 [8]: 3300 nM; hepatocyte CLint at 1 µM (in vitro): 23 µL/min/1e6 cells; solubility at 24 h [9]: 1.8 µM (≈ 0.797 µg/mL); logD (physchem): 2.4
